This passage reports IC50 results from patent US20210363152A1, “AMINOAZINE AMIDES” (Hoffmann-La Roche Inc., priority 2018, published 2021).

In the experiment the target is T1, Autotaxin enzyme (ATX) (Homo sapiens, UniProt Q13822).
T1 construct: purchased Echelon Biosciences, Inc. E-4000
Description: In vitro ATX assay (enzymatic ATX inhibition, LPC 14:0 substrate, choline oxidase/HRP absorbance readout). The conditions noted are these: 0.3 mM LPC 14:0, 37° C., 4 hours, absorbance 555 nm. In kind it is biochemical. On the procedure:
• Assay buffer: 100 mM Tris-HCl, pH 9.0, 500 mM NaCl, 5 mM MgCl2, 30 μM CoCl2, 0.05% Triton X-100 • Assay buffer II: 4.5 mM 4-AAP, 2.7 mM TOOS, 21.2 U/mL HRP, 3 U/mL CO, In 50 mM Tris-HCl pH 8.0, 4.5 mM MgCl2
A compound preparation plate (Nunc 249944) was prepared by adding 30 mM stock solution (in DMSO) of test compound and performing a serial full-log dilution down to 30 nM. Two μL/well were transferred from the first compound prep plate to a compound dilution plate (Corning, 3641) and 198 μL assay buffer I was added for a […].
A 10 ng/mL solution of ATX was prepared by diluting in assay buffer I, and 80 μL/well were added to the assay plate (Corning, 3641); negative control wells contained 80 μL/well assay buffer I only (no ATX). Ten μL/well from the compound dilution plate (containing serially diluted test compound or DMSO) were added to the assay plate, which was then incubated at 37° C. for 15 minutes. A solution of LPC 14:0 was prepared in assay buffer I at 3 mM and 10 μl/well were added to the assay plate, for a final concentration of 0.3 mM LPC, and returned to 37° C. incubator for 4 hours. After 4 hour incubation, 100 μL/well of assay buffer II was added to all wells of the assay plate. The plate was incubated at RT for 15 minutes, prior to reading on FlexStation in absorbance mode, 555 nm. Results in the enzymatic ATX inhibition assay are provided for compounds of formula (I). An IC50 value of “A” is less than 100 nM, “B” is equal to or greater than 100 nM but less than 1 μM, “C” is equal to or greater than 1 μM.

In the case of `O=C(c1cnc(NCc2cc(OC(F)(F)F)cc(N3CCC3)c2)nc1)N1CCC12COC2` [Example 158, (2-((3-(Azetidin-1-yl)-5-(trifluoromethoxy)benzyl)amino)pyrimidin-5-yl)(6-oxa-1-azaspiro[3.3]heptan-1-yl)methanone], the IC50 is < 0.1 µM.
The value for `NC(=O)c1cc(CNc2ncc(C(=O)N3CCC34COC4)cn2)cc(OC(F)(F)F)c1` [Example 140, 3-(((5-(6-Oxa-1-azaspiro[3.3]heptane-1-carbonyl)pyrimidin-2-yl)amino)methyl)-5-(trifluoromethoxy)benzamide] was ≥ 1 µM; that for `O=C(c1cnc(NCc2cc(C3CC3)cc(C3CC3)c2)nc1)N1CCC12COC2` [Example 37] was < 0.1 µM.
Turning to `O=C(c1cnc(NCc2cc(Br)cc(OC(F)(F)F)c2)nc1)N1CCC12COC2` [Example 25], the IC50 is < 0.1 µM.
Consider `CC1(O)CC2(CCN2C(=O)c2cnc(N[C@@H]3Cc4ccc(Cl)cc4C3)nc2)C1` (stereo partly drawn) [Example 134, (R)-(2-((5-Chloro-2,3-dihydro-1H-inden-2-yl)amino)pyrimidin-5-yl)(6-hydroxy-6-methyl-1-azaspiro[3.3]heptan-1-yl)methanone], for which the 50% inhibitory concentration (IC50) was < 0.1 µM.
The value for `CS(=O)(=O)C1CN(C(=O)c2cnc(NCc3cc(OC(F)(F)F)cc(C4CC4)c3)nc2)C1` [Example 88, (2-((3-cyclopropyl-5-(trifluoromethoxy)benzyl)ami-no)pyrimidin-5-yl)(3-(methylsulfonyl)azetidin-1-yl)methanone] was 0.1 to 1 µM.
Turning to `CCOc1cc(CNc2ncc(C(=O)N3CCC34COC4)cn2)cc(OCC)c1` [Example 53], the IC50 is < 0.1 µM.
For `O=C(c1cnc(NC2Cc3ccccc3C2)nc1)N1CCC1` [Example 8], the IC50 lay within 0.1 to 1 µM.
Consider `CN1CCCC2(CCN2C(=O)c2cnc(NCc3cc(OC(F)(F)F)cc(C4CC4)c3)nc2)C1` (centres unmarked) [Example 156, (2-((3-Cyclopropyl-5-(trifluoromethoxy)benzyl)amino)pyrimidin-5-yl)(6-methyl-1,6-diazaspiro[3.5]nonan-1-yl)methanone], for which the IC50 was < 0.1 µM.
With `O=C(c1cnc(N[C@@H]2Cc3ccc(Cl)cc3C2)nc1)N1CCC12COC2` [Example 129, (R)-(2-((5-Chloro-2,3-dihydro-1H-inden-2-yl)amino)pyrimidin-5-yl)(6-oxa-1-azaspiro[3.3]heptan-1-yl)methanone], the concentration for half-maximal inhibition (IC50) was < 0.1 µM.
As for `COc1ccc2c(c1)CC(Nc1ncc(C(=O)N3CCC34COC4)cn1)C2` (centres unmarked) [Example 32], the IC50 was in the range of 0.1 to 1 µM.
Turning to `O=C(c1cnc(NCc2ccc(Cl)c(Cl)c2)nc1)N1CCC12COC2` [Example 51], the IC50 is ≥ 1 µM.
In the case of `CC(C)(O)C1CCN1C(=O)c1cnc(NCc2cc(OC(F)(F)F)cc(N3CCC3)c2)nc1` (centres unmarked) [Example 68] it was < 0.1 µM; in that of `O=C(c1cnc(NCc2cc(OC(F)(F)F)cc(C3CC3)c2)nc1)N1CCC12CCOCC2` [Example 101, (2-((3-cyclopropyl-5-(trifluoromethoxy)benzyl)ami-no)pyrimidin-5-yl)(7-oxa-1-azaspiro[3.5]nonan-1-yl)methanone], < 0.1 µM.
In turn, `O=C(c1cnc(NC2Cc3ccccc3C2)nc1)N1CCC12COC2` [Example 7] gave an IC50 of 0.1 to 1 µM.
The value for `O=C(c1cnc(NCc2cc(OC(F)(F)F)cc(C3CC3)c2)nc1)N1CCC12CCOC2` (single isomer, unassigned) [Example 117, (2-((3-Cyclopropyl-5-(trifluoromethoxy)-benzyl)amino)pyrimidin-5-yl)(6-oxa-1-azaspiro[3.4]octan-1-yl) methanone] was < 0.1 µM; that for `O=C(c1cnc(NC2Cc3ccc(Cl)cc3C2)nc1)N1CCC1` (centres unmarked) [Example 56] was < 0.1 µM; that for `CN1CCC2(CC1)CCN2C(=O)c1cnc(NC2Cc3ccc(Cl)cc3C2)nc1` (centres unmarked) [Example 40] was < 0.1 µM.
Regarding `CN1CCC2(CC1)CCN2C(=O)c1cnc(NCc2cc(OC(F)(F)F)cc(C3CC3)c2)nc1` [Example 112, (2-((3-cyclopropyl-5-(trifluoromethoxy)benzyl)ami-no)pyrimidin-5-yl)(7-methyl-1,7-diazaspiro[3.5]nonan-1-yl)methanone], the IC50 is < 0.1 µM.
As to `O=C(c1cnc(NCc2cc(OC(F)(F)F)cc(C3CC3)c2)nc1)N1CCC12COC2` [Example 80, (2-((3-cyclopropyl-5-(trifluoromethoxy)benzyl)ami-no)pyrimidin-5-yl)(6-oxa-1-azaspiro[3.3]heptan-1-yl)-methanone], the concentration for half-maximal inhibition (IC50) was < 0.1 µM.
`O=C(c1cnc(NCc2cccc(C(F)(F)F)c2)nc1)N1CCC12COC2` [Example 20]: the 50% inhibitory concentration (IC50) was ≥ 1 µM.
In the case of `CC(C)(O)[C@@H]1CCN1C(=O)c1cnc(N[C@@H]2Cc3ccc(Cl)cc3C2)nc1` [Example 135] it was < 0.1 µM; in that of `O=C(c1cnc(NCc2cc(OC(F)(F)F)cc(C3CC3)c2)nc1)N1CCc2cnccc21` [Example 91, (2-((3-cyclopropyl-5-(trifluoromethoxy)benzyl)ami-no)pyrimidin-5-yl)(2,3-dihydro-1H-pyrrolo[3,2-c]pyridin-1-yl)methanone], 0.1 to 1 µM; in that of `CC(C)c1cc(CNc2ncc(C(=O)N3CCC3C)cn2)cc(OC(F)(F)F)c1` (single isomer, unassigned) [Example 69, (2-((3-Isopropyl-5-(trifluoromethoxy)benzyl)amino)pyrimidin-5-yl)(2-methylazetidin-1-yl)methanone], < 0.1 µM.
With `COc1cc(CNc2ncc(C(=O)N3CCC3C)cn2)cc(OC)c1` (centres unmarked) [Example 11], the half-inhibitory concentration (IC50) was ≥ 1 µM.
The value for `CC(C)N1CC2(CCN2C(=O)c2cnc(NCc3cc(OC(F)(F)F)cc(C4CC4)c3)nc2)C1` [Example 147, (2-((3-Cyclopropyl-5-(trifluoromethoxy)benzyl)amino)pyrimidin-5-yl) (6-isopropyl-1,6-diazaspiro[3.3]heptan-1-yl)methanone] was < 0.1 µM; that for `O=C(c1cnc(NCc2cc(OC(F)(F)F)cc(C3CC3)c2)nc1)N1CCC1` [Example 81, azetidin-1-yl(2-((3-cyclopropyl-5-(trifluoro-methoxy)benzyl)amino)-pyrimidin-5-yl)methanone] was < 0.1 µM.
The value for `CC1CCN1C(=O)c1cnc(N[C@@H]2Cc3ccc(Cl)cc3C2)nc1` (stereo partly drawn) [Example 133, (2-(((R)-5-Chloro-2,3-dihydro-1H-inden-2-yl)amino)pyrimidin-5-yl)(2-methylazetidin-1-yl)methanone] was < 0.1 µM.
Take `CCOc1cc(CNc2ncc(C(=O)N3CCC3C(C)(C)O)cn2)cc(OC(F)(F)F)c1` (centres unmarked) [Example 66]: the IC50 is < 0.1 µM.
In the case of `O=C(c1cnc(NC2Cc3cc(Br)c(Br)cc3C2)nc1)N1CCC12COC2` [Example 127, (2-((5,6-Dibromo-2,3-dihydro-1H-inden-2-yl)amino)pyrimidin-5-yl)(6-oxa-1-azaspiro[3.3]heptan-1-yl)methanone] it was 0.1 to 1 µM; in that of `COC1CN(C(=O)c2cnc(NCc3cc(OC(F)(F)F)cc(C4CC4)c3)nc2)C1` [Example 109, (2-((3-cyclopropyl-5-(trifluoromethoxy)benzyl)ami-no)pyrimidin-5-yl)(3-methoxyazetidin-1-yl)-methanone], < 0.1 µM; in that of `CN1CCC2(CCN2C(=O)c2cnc(NCc3cc(OC(F)(F)F)cc(C4CC4)c3)nc2)C1` (centres unmarked) [Example 155, (2-((3-Cyclopropyl-5-(trifluoromethoxy)benzyl)amino)pyrimidin-5-yl)(6-methyl-1,6-diazaspiro[3.4]octan-1-yl)methanone], < 0.1 µM.
With `CC(C)(O)C1CCN1C(=O)c1cnc(N[C@@H]2Cc3ccc(Cl)cc3C2)nc1` (stereo partly drawn) [Example 131, (2-(((R)-5-Chloro-2,3-dihydro-1H-inden-2-yl)amino)pyrimidin-5-yl)(2-(2-hydroxypropan-2-yl)azetidin-1-yl)methanone], the IC50 is < 0.1 µM.
The value for `CS(=O)(=O)CCN1CC2(CCN2C(=O)c2cnc(NCc3cc(OC(F)(F)F)cc(C4CC4)c3)nc2)C1` [Example 150, (2-((3-Cyclopropyl-5-(trifluoromethoxy)benzyl)amino)pyrimidine-5-yl) (6-(2-(methylsulfonyl)ethyl)-1,6-diazaspiro[3.3]heptan-1-yl)methanone] was < 0.1 µM.
Regarding `O=C(c1cnc(NCc2cc(OCC3CC3)cc(OC(F)(F)F)c2)nc1)N1CCC12COC2` [Example 27], the IC50 was < 0.1 µM.
In the case of `O=C(c1cnc(N[C@@H]2Cc3ccc(Br)cc3C2)nc1)N1CCC12COC2` [Example 62], the IC50 was < 0.1 µM.
`CS(=O)(=O)c1ccc2c(c1)CC(Nc1ncc(C(=O)N3CCC34COC4)cn1)C2` (centres unmarked) [Example 138, (2-((5-(Methylsulfonyl)-2,3-dihydro-1H-inden-2-yl)amino)pyrimidin-5-yl)(6-oxa-1-azaspiro[3.3]heptan-1-yl)methanone]: the 50% inhibitory concentration (IC50) is ≥ 1 µM.
`Cc1cc(CNc2ncc(C(=O)N3CCC3C)cn2)cc(OC(F)(F)F)c1` (centres unmarked) [Example 12] registered an IC50 of 0.1 to 1 µM.
